Measured values from patent CN106420773A, “一种治疗放射性肠炎的中西药组合物及其制备方法和应用” (Zhengzhou Lidiya Medicine Technology Co Ltd, priority 2016, dated 2017).

Assay: Clinical trial in patients receiving pelvic radiotherapy (radiation enteritis)
Type: in vivo, human
Details: once daily, 10 days, with conventional radiotherapy
[1] = number of patients of 50 per group

CC(O)C(=O)[O-].CC(O)C(=O)[O-].[Ca+2] (stereo not shown) [对比例2, 乳酸钙]
total effective rate (50 patients per group): 4% | cured [1]: 0 | improved [1]: 2 | ineffective [1]: 48
